The record followed here is patent US20220153732A1, “PROTEIN SECRETION INHIBITORS” (KEZAR LIFE SCIENCES, priority 2019, published 2022).

Format in all cases: cell-based
Assay [1] concerns TNFα-FL/Gaussia Luciferase. The experiment in a line: Dox Induced TNFα-FL-Gluc Assay. Conditions: 293FRT/TO cells, read-out: 24 hr Dox Inducible TNFaFLGluc 293FRT/TO: Mean IC50. The method, then: (§1) Transfected cells were selected for resistance to the selectable markers Hygromycin and Blasticidin to create a stable cell line that contained the TNFα-FL/Gaussia Luciferase cDNA insert whose expression was regulated under the T-RExTM system. The day before assay, cells were trypsinized and plated in 384-well tissue culture plates. The next day, compound dilutions in DMSO/media containing doxycycline were added to the wells and incubated at 37° C., 5% CO2. […] For chemical structures that include one or more stereoisomers, but are illustrated without indicating stereochemistry, the assay data refers to a mixture of stereoisomers.

Assay [2] has as its system PD1-ss+10aa/Gaussia Luciferase. The experiment in a line: Dox-Induced PD1-ss-Gluc Assay. As to conditions: 293FRT/TO cells, read-out: 24 hr Dox Inducible PD1ssGluc 293FRT/TO: Mean IC50. How it is done: Transfected cells were selected for resistance to the selectable markers Hygromycin and Blasticidin to create a stable cell line that contained the PD1-ss+10aa/Gaussia Luciferase cDNA insert whose expression was regulated under the T-REx™ system. The day before assay, cells were trypsinized and plated in 384-well tissue culture plates. The next day, compound dilutions in DMSO/media containing doxycycline were added to the wells and incubated at 37° C., 5% CO2.
(§2) For chemical structures that include one or more stereoisomers, but are illustrated without indicating stereochemistry, the assay data refers to a mixture of stereoisomers.

In assay [3] the test system is IL-2-FL/Gaussia Luciferase. The experiment in a line: Dox Induced IL2-FL-Gluc Assay. As to conditions: 293FRT/TO cells, read-out: 24 hr Dox Inducible IL2FLGIuc 293FRT/TO: Mean IC50. The method, then: as §1, with “IL-2-FL/Gaussia” for “TNFα-FL/Gaussia”
The subject of assay [4] is human multiple myeloma cell line NCI-H929. As to the kind of experiment: H929 Cell Viability Assay. Conditions: 48 hr, NCI-H929 cells, Celltiter-Glo, read-out: 48 hr H929 Viability Celltiter-Glo: Mean EC50. The method, then: Plates were incubated at 37° C., 5% CO2 for 48 hours. After 48 hours, Celltiter-Glo® (Promega) was added to each well and luciferase signal was quantified using Tecan Infinite M1000 Pro for cell viability determination.
as §2
For orientation: Cellular ATP, detected with luciferase, serves as a proxy for viable cell number.

Assay [5] has as its system human multiple myeloma cell line U266B1. The experiment in a line: U266 Cell Viability Assay. As to conditions: U-266, 48 hr, U266B1 cells, Celltiter-Glo, read-out: 48 hr U266 Viability Celltiter-Glo: Mean EC50. How it is done: Cells were plated in 384-well tissue culture plates and treated with compound dilutions in DMSO/media. Plates were incubated at 37° C., 5% CO2 for 48 hours. After 48 hours, Celltiter-Glo® (Promega) was added to each well and luciferase signal was quantified using Tecan Infinite M1000 Pro for cell viability determination.
as §2

Assay [6] has as its system HER3-ss+4aa/Gaussia Luciferase. The experiment in a line: Dox-Induced Her3-ss-Gluc Assay. As to conditions: 293FRT/TO cells, read-out: 24 hr Dox Inducible Her3(ss + 4)Gluc 293FRT/TO: Mean IC50. How it is done:
Transfected cells were selected for resistance to the selectable markers Hygromycin and Blasticidin to create a stable cell line that contained the HER3-ss+4aa/Gaussia Luciferase cDNA insert whose expression was regulated under the T-REx™ system. The day before assay, cells were trypsinized and plated in 384-well tissue culture plates. The next day, compound dilutions in DMSO/media containing doxycycline were added to the wells and incubated at 37° C., 5% CO2.
as §2

[7] abbreviates: 24 hr doxycycline induction, Gaussia luciferase signal.

Like-named read-outs stand apart in the source and are kept apart here.

For `CC(C)OC(C)(C)c1csc(NC(=O)c2cccn2Cc2ccc(=O)n(C)c2)n1` [Compound A124, N-(4-(2-isopropoxypropan-2-yl)thiazol-2-yl)-1-((1-methyl-6-oxo-1,6-dihydropyridin-3-yl)methyl)-1H-pyrrole-2-carboxamide], the IC50 in assay [1] (setting [7]), in assay [2] (setting [7]), in assay [3] (setting [7]) and in assay [6] (setting [7]) was more than 25 µM each time. Besides, the EC50 in assay [4] and in assay [5] was more than 25 µM in each case.
Turning to `O=C(Nc1nc(Cc2ccccc2)cs1)c1cccn1CCCc1cccnc1` [Compound A187, N-(4-benzylthiazol-2-yl)-1-(3-(pyridin-3-yl)propyl)-1H-pyrrole-2-carboxamide], the IC50 was more than 25 µM in assay [1] (setting [7]), 10.4 µM in assay [2] (setting [7]), 11.6 µM in assay [3] (setting [7]) and more than 21.9 µM in assay [6] (setting [7]). Moreover, the EC50 in assay [4] was 18.3 µM; in assay [5], more than 25 µM.
Turning to `CC(=O)N1CCC(CCCn2cccc2C(=O)Nc2nc(C(C)(C)OC(C)C)cs2)CC1` [Compound A101, 1-(3-(1-acetylpiperidin-4-yl)propyl)-N-(4-(2-isopropoxypropan-2-yl)thiazol-2-yl)-1H-pyrrole-2-carboxamide], the IC50 in assay [1] (setting [7]), in assay [2] (setting [7]), in assay [3] (setting [7]) and in assay [6] (setting [7]) was more than 25 µM each time. Moreover, the EC50 in assay [4] and in assay [5] was more than 25 µM in each case.
On to `CC(C)OC(C)(C)c1csc(NC(=O)c2cccn2Cc2ccccc2Cl)n1` [Compound A78], for which the IC50 in assay [1] (setting [7]) is more than 25 µM; in assay [2] (setting [7]), 3.16 µM; in assay [3] (setting [7]), 6.38 µM; in assay [6] (setting [7]), 7.88 µM. Also, the figures for the EC50 in assay [4] and in assay [5] were 20.9 µM and more than 25 µM, respectively.
Turning to `O=C(Nc1nc([C@@H]2CCN(c3ccccc3)C2)cs1)c1cccn1Cc1ccncc1` [Compound A289], the IC50 in assay [1] (setting [7]) turned out to be 3.61 µM; in assay [2] (setting [7]), 0.201 µM; in assay [3] (setting [7]), 0.856 µM; in assay [6] (setting [7]) it was 0.512 µM. Moreover, the figures for the EC50 in assay [4] and in assay [5] were 22 µM and more than 25 µM, respectively.
`O=C(Nc1nc([C@H]2CC[C@@H](c3ccccc3)C2)cs1)c1cccn1Cc1ccncc1` (stereo in doubt) [Compound A305, N-(4-((1S,3R)-3-phenylcyclopentyl)thiazol-2-yl)-1-(pyridin-4-ylmethyl)-1H-pyrrole-2-carboxamide]: the IC50 in assay [1] (24 hr, doxycycline-induced) worked out at 2.18 µM; in assay [2] (24 hr, doxycycline-induced), 0.196 µM; in assay [3] (24 hr, doxycycline-induced) it was 0.657 µM; in assay [6] (24 hr, doxycycline-induced), 0.414 µM. Besides, the EC50 in assay [4] was 12.4 µM; in assay [5], more than 25 µM.
In the case of `CC(C)OC(C)(C)c1csc(NC(=O)c2cccn2Cc2ccnnc2)n1` [Compound A69, N-(4-(2-isopropoxypropan-2-yl)thiazol-2-yl)-1-(pyridazin-4-ylmethyl)-1H-pyrrole-2-carboxamide], the IC50 in assay [1] (setting [7]) was more than 25 µM; in assay [2] (setting [7]), 2.08 µM; in assay [3] (setting [7]), 4.17 µM; in assay [6] (setting [7]), 6.22 µM. Moreover, the EC50 in assay [4] and in assay [5] was more than 25 µM each time.
Regarding `O=C(Nc1nc(C#Cc2ccccc2Cl)cs1)c1cccn1Cc1ccncc1` [Compound A144], the IC50 was 0.905 µM in assay [1] (setting [7]), 0.151 µM in assay [2] (setting [7]), 0.748 µM in assay [3] (setting [7]) and 0.395 µM in assay [6] (setting [7]). In addition, the EC50 in assay [4] came to 6.86 µM; in assay [5], 10.4 µM.
On to `O=C(Nc1nc(CCc2ccccc2)cs1)c1cccn1Cc1ccncc1` [Compound A13, N-(4-phenethylthiazol-2-yl)-1-(pyridin-4-ylmethyl)-1H-pyrrole-2-carboxamide], for which the IC50 in assay [1] (setting [7]) amounted to 3.31 µM; in assay [2] (setting [7]) it was 0.148 µM; in assay [3] (setting [7]), 0.648 µM; in assay [6] (setting [7]), 0.382 µM. In addition, the EC50 in assay [4] was 18.8 µM; in assay [5], more than 25 µM.
For `CNC(=O)c1cnc(NC(=O)c2cccn2Cc2ccncc2)s1` [Compound B16], the IC50 was more than 25 µM in assay [1] (24 hr, doxycycline-induced); more than 25 µM in assay [2] (24 hr, doxycycline-induced); more than 25 µM in assay [3] (24 hr, doxycycline-induced); more than 25 µM in assay [6] (24 hr, doxycycline-induced). Further, the EC50 in assay [4] and in assay [5] was more than 25 µM throughout.
Consider `O=C(Nc1nc([C@H]2C[C@H]2c2ccccc2)cs1)c1cccn1Cc1ccncc1` [Compound A200], for which the IC50 is 1.61 µM in assay [1] (setting [7]), 0.14 µM in assay [2] (setting [7]), 0.251 µM in assay [3] (setting [7]) and 0.332 µM in assay [6] (setting [7]). The EC50 in assay [4] was 15.7 µM; in assay [5], more than 25 µM.
With `CC(C)Cc1cnc(NC(=O)c2cccn2Cc2ccncc2)s1` [Compound A57], the IC50 in assay [1] (setting [7]) is more than 25 µM; in assay [2] (setting [7]), 1.42 µM; in assay [3] (setting [7]) it was 4.93 µM; in assay [6] (setting [7]), 4.2 µM. Moreover, the 50% effective concentration (EC50) in assay [4] and in assay [5] was more than 25 µM in each case.
As for `CC(C)(COc1ccccc1)c1csc(NC(=O)c2cccn2Cc2ccncc2)n1` [Compound A228], the IC50 in assay [1] (setting [7]) was 3.59 µM; in assay [2] (setting [7]) it was 0.335 µM; in assay [3] (setting [7]), 0.933 µM; in assay [6] (setting [7]), 0.73 µM. In addition, the EC50 in assay [4] was 9.25 µM; in assay [5], more than 25 µM.
In the case of `Cc1cc(Cn2cccc2C(=O)Nc2nc(C(C)(C)OC(C)C)cs2)cc(C)n1` [Compound A97], the IC50 in assay [1] (setting [7]) is more than 25 µM; in assay [2] (setting [7]), 18.9 µM; in assay [3] (setting [7]) it was more than 25 µM; in assay [6] (setting [7]), more than 25 µM. Besides, the EC50 in assay [4] and in assay [5] was more than 25 µM throughout.
Consider `O=C(Nc1ncc(Cc2ccccc2)s1)c1cccn1Cc1ccncc1` [Compound A34, N-(5-benzylthiazol-2-yl)-1-(pyridin-4-ylmethyl)-1H-pyrrole-2-carboxamide], for which the IC50 in assay [1] (setting [7]) is more than 25 µM; in assay [2] (setting [7]), 0.674 µM; in assay [3] (setting [7]), 4.24 µM; in assay [6] (setting [7]), 2.42 µM. For the same compound, the EC50 in assay [4] and in assay [5] was more than 25 µM each time.
For `O=C(Nc1nc([C@H]2CCC[C@H]2c2ccccc2)cs1)c1cccn1Cc1ccncc1` [Compound A301, N-(4-((1S,2R)-2-phenylcyclopentyl)thiazol-2-yl)-1-(pyridin-4-ylmethyl)-1H-pyrrole-2-carboxamide], the IC50 in assay [1] (24 hr, doxycycline-induced) is 0.242 µM; in assay [2] (24 hr, doxycycline-induced), 0.043 µM; in assay [3] (24 hr, doxycycline-induced) it was 0.064 µM; in assay [6] (24 hr, doxycycline-induced) it was 0.054 µM. The EC50 in assay [4] was 2.77 µM; in assay [5], more than 25 µM.
Consider `CN(C)Cc1csc(NC(=O)c2cccn2Cc2ccncc2)n1` [Compound B19], for which the IC50 was more than 25 µM in assay [1] (24 hr, doxycycline-induced); more than 25 µM in assay [2] (24 hr, doxycycline-induced); more than 25 µM in assay [3] (24 hr, doxycycline-induced); more than 25 µM in assay [6] (24 hr, doxycycline-induced). For the same compound, the EC50 in assay [4] and in assay [5] was more than 25 µM throughout.
`O=C(Nc1nc(C2CCN(c3ccccc3)CC2)cs1)c1cccn1CCCc1ccncc1` [Compound A285]: the IC50 in assay [1] (setting [7]) stood at 16.1 µM; in assay [2] (setting [7]), 1.23 µM; in assay [3] (setting [7]) it was 2.86 µM; in assay [6] (setting [7]) it was 1.84 µM. For the same compound, the results for the EC50 in assay [4] and in assay [5] were 17.8 µM and 16.7 µM, respectively.

For orientation: EC50 means the midpoint of the concentration-response curve.
